Assay results: PubChem BioAssay (NCI)
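Five compound concentrations were applied to cells in 96-well plates for 48 hours; endpoints were derived by simple linear interpolation of the resulting dose-response curve. TGI marks complete inhibition of growth.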

Assays:
Test in all cases: inhibition of tumour cell growth, NCI panel, 48 h
[1] = test system: HCT-116 colon
[2] = test system: MCF7 breast
[3] = test system: TK-10 renal
[4] = test system: MDA-MB-231 breast
[5] = test system: OVCAR-8 ovarian
[6] = test system: UACC-62 melanoma
[7] = test system: PC-3 prostate
[8] = test system: A498 renal
[9] = test system: SF-539 CNS
[10] = test system: OVCAR-4 ovarian
[11] = test system: NCI-H226 lung
[12] = test system: UO-31 renal
[13] = test system: CAKI-1 renal
[14] = test system: SK-MEL-2 melanoma
[15] = test system: A549 NSCLC
[16] = test system: UACC-257 melanoma
[17] = test system: SR leukemia
[18] = test system: HT29 colon
[19] = test system: K-562 leukemia
[20] = test system: SK-MEL-28 melanoma
[21] = test system: HS 578T breast
[22] = test system: MDA-N
[23] = test system: HCT-15 colon
[24] = test system: SK-MEL-5 melanoma
[25] = test system: CCRF-CEM leukemia
[26] = test system: HL-60(TB) leukemia
[27] = test system: MDA-MB-435
[28] = test system: HOP-62 NSCLC
[29] = test system: U251 CNS
[30] = test system: COLO 205 colon
[31] = test system: RXF 393 renal
[32] = test system: OVCAR-5 ovarian
[33] = test system: ACHN renal
[34] = test system: SW-620 colon
[35] = test system: NCI-H460 lung
[36] = test system: SN12C renal
[37] = test system: NCI/ADR-RES ovarian
[38] = test system: SK-OV-3 ovarian
[39] = test system: BT-549 breast
[40] = test system: SF-295 CNS
[41] = test system: OVCAR-3 ovarian
[42] = test system: M14 melanoma
[43] = test system: IGROV1 ovarian
[44] = test system: MALME-3M melanoma
[45] = test system: 786-0 renal
[46] = test system: LOX IMVI melanoma
[47] = test system: SF-268 CNS
[48] = test system: SNB-75 CNS
[49] = test system: T-47D breast
[50] = test system: DU-145 prostate
[51] = test system: EKVX NSCLC
[52] = test system: KM12 colon
[53] = test system: NCI-H23 lung
[54] = test system: MOLT-4 leukemia
[55] = test system: SNB-19 CNS
[56] = test system: HOP-92 NSCLC
[57] = test system: NCI-H522 lung
[58] = test system: RPMI-8226 leukemia

CCOC(=O)O/C(=C\c1ccc(OC)cc1)c1c(OC(=O)OCC)n(C(=O)OCC)c2ccccc12
TGI [1]: > 100 µM | TGI [2]: > 100 µM | TGI [3]: 93.7 µM | TGI [4]: 77.6 µM | TGI [5]: > 100 µM | TGI [6]: > 100 µM | TGI [7]: > 100 µM | TGI [8]: 27.3 µM | TGI [9]: > 100 µM | TGI [10]: > 100 µM | TGI [11]: > 100 µM | TGI [12]: > 100 µM | TGI [13]: > 100 µM | TGI [14]: > 100 µM | TGI [15]: > 100 µM | TGI [16]: > 100 µM | TGI [17]: > 100 µM | TGI [18]: > 100 µM | TGI [19]: > 100 µM | TGI [20]: > 100 µM | TGI [21]: > 100 µM | TGI [22]: > 100 µM | TGI [23]: > 100 µM | TGI [24]: > 100 µM | TGI [25]: > 100 µM | TGI [26]: > 100 µM | TGI [27]: > 100 µM | TGI [28]: > 100 µM | TGI [29]: > 100 µM | TGI [30]: > 100 µM | TGI [31]: 67.9 µM | TGI [32]: > 100 µM | TGI [33]: > 100 µM | TGI [34]: > 100 µM | TGI [35]: 30.3 µM | TGI [36]: > 100 µM | TGI [37]: > 100 µM | TGI [38]: 99.7 µM | TGI [39]: > 100 µM | TGI [40]: > 100 µM | TGI [41]: > 100 µM | TGI [42]: > 100 µM | TGI [43]: > 100 µM | TGI [44]: > 100 µM | TGI [45]: > 100 µM | TGI [46]: > 100 µM | TGI [47]: > 100 µM | TGI [48]: > 100 µM | TGI [49]: > 100 µM | TGI [50]: > 100 µM | TGI [51]: > 100 µM | TGI [52]: > 100 µM | TGI [53]: > 100 µM

c1ccc2c(c1)nnn2CN1CCOCC1
TGI [1]: > 100 µM | TGI [54]: > 100 µM | TGI [3]: > 100 µM | TGI [4]: > 100 µM | TGI [5]: > 100 µM | TGI [6]: > 100 µM | TGI [7]: > 100 µM | TGI [8]: > 100 µM | TGI [10]: > 100 µM | TGI [11]: > 100 µM | TGI [12]: > 100 µM | TGI [55]: > 100 µM | TGI [13]: > 100 µM | TGI [14]: > 100 µM | TGI [15]: > 100 µM | TGI [16]: > 100 µM | TGI [17]: 54.8 µM | TGI [18]: > 100 µM | TGI [56]: > 100 µM | TGI [19]: > 100 µM | TGI [20]: > 100 µM | TGI [21]: > 100 µM | TGI [22]: > 100 µM | TGI [23]: > 100 µM | TGI [24]: > 100 µM | TGI [26]: 63.6 µM | TGI [27]: > 100 µM | TGI [28]: > 100 µM | TGI [29]: > 100 µM | TGI [31]: > 100 µM | TGI [32]: > 100 µM | TGI [33]: > 100 µM | TGI [34]: > 100 µM | TGI [35]: > 100 µM | TGI [36]: > 100 µM | TGI [37]: > 100 µM | TGI [39]: > 100 µM | TGI [40]: > 100 µM | TGI [41]: 93.1 µM | TGI [42]: > 100 µM | TGI [43]: > 100 µM | TGI [44]: > 100 µM | TGI [45]: > 100 µM | TGI [46]: > 100 µM | TGI [47]: > 100 µM | TGI [49]: > 100 µM | TGI [51]: > 100 µM | TGI [52]: > 100 µM | TGI [53]: > 100 µM | TGI [57]: > 100 µM

CC(C)C(=O)OCN(C)c1nc(N(C)COC(=O)C(C)C)nc(N(C)COC(=O)C(C)C)n1
TGI [1]: > 100 µM | TGI [2]: > 100 µM | TGI [54]: 58.1 µM | TGI [3]: > 100 µM | TGI [4]: 57.7 µM | TGI [5]: 45.5 µM | TGI [7]: > 100 µM | TGI [8]: > 100 µM | TGI [9]: 53.9 µM | TGI [10]: 58.3 µM | TGI [11]: > 100 µM | TGI [12]: 52.5 µM | TGI [55]: > 100 µM | TGI [13]: > 100 µM | TGI [14]: 49.8 µM | TGI [15]: > 100 µM | TGI [16]: 38.2 µM | TGI [17]: 50.5 µM | TGI [18]: 66.3 µM | TGI [19]: > 100 µM | TGI [20]: 44.5 µM | TGI [21]: 49.1 µM | TGI [22]: 46.2 µM | TGI [23]: 51 µM | TGI [24]: 28.4 µM | TGI [25]: 70.5 µM | TGI [26]: 48.9 µM | TGI [27]: 32.2 µM | TGI [28]: > 100 µM | TGI [30]: 51.3 µM | TGI [32]: 95.3 µM | TGI [33]: 99.6 µM | TGI [34]: 89.6 µM | TGI [35]: 54.2 µM | TGI [36]: > 100 µM | TGI [58]: > 100 µM | TGI [37]: > 100 µM | TGI [39]: 46.2 µM | TGI [40]: 93.2 µM | TGI [41]: > 100 µM | TGI [42]: 33 µM | TGI [45]: 65.2 µM | TGI [46]: 39.1 µM | TGI [48]: 61.9 µM | TGI [49]: > 100 µM | TGI [50]: > 100 µM | TGI [51]: > 100 µM | TGI [52]: 43.9 µM | TGI [53]: 41.2 µM | TGI [57]: 36 µM
